Measurements from the pKa sets of Baltruschat and Czodrowski (2020).
Several values for one entry are separate records, joined by “and”; a condition that tells them apart may be missing. Equal values may be shown once.

| SMILES | pKa |
| --- | --- |
| Nc1cccc(Nc2c3ccccc3nc3ccccc23)c1 | 7.58 |
| CC(CN(C)C)CN1c2ccccc2CCc2ccccc21 (stereo unspecified) | 9.24 |
| COc1cc(NS(C)(=O)=O)ccc1Nc1c2ccccc2nc2ccc(N)cc12 | 7.37 |
| CCCCNC(=O)c1cccc2c(Nc3ccc(NS(C)(=O)=O)cc3OC)c3ccccc3nc12 | 6.36 |
| CS(=O)(=O)Nc1ccc(Nc2c3ccccc3nc3cnccc23)cc1 | 5.32 |
| Cc1c(N(C)C)c(=O)n(-c2ccccc2)n1C | 4.48 |
| Cc1nc2c(/C=C/Cc3ccccc3)cccn2c1N | 6.75 |
| O=C1N=C(O)NC1(c1ccccc1)c1ccccc1 | 8 |
| O=C(Nc1ccon1)N1CCN(Cc2cccc(Oc3ccc(Cl)cc3)c2)CC1 | -2.97 |
| C[C@H](CCC(=O)O)[C@H]1CC[C@H]2[C@@H]3[C@@H](O)C[C@@H]4C[C@H](O)CC[C@]4(C)[C@H]3CC[C@]12C | 5.08 |
| CC(C(=O)O)c1ccc(-c2ccccc2)c(F)c1 (stereo unspecified) | 4.6 and 4.2 |
| c1ccc(-c2ncc[nH]2)cc1 | 6.48 |
| COc1ccc([C@@H]2Sc3ccccc3N(CCN(C)C)C(=O)[C@@H]2OC(C)=O)cc1.Cl | 8.06 |
| COc1cccc(S(=O)(=O)Nc2cccn(CC(=O)NCc3ccc(C(=N)N)cc3F)c2=O)c1 | 9.4 |
| CCCCNC(=O)NS(=O)(=O)c1ccc(C)cc1 | 5.3 |
| COc1ccc(C(CCCN)(c2ccccc2)c2ccccc2)cc1 | 9.86 |
| Cc1cc(Cl)c(N=C2NCCN2)c(Cl)c1 | 8.29 |
| CCc1ccccc1Nc1c2ccccc2nc2ccccc12 | 7.68 |
| CC(CN1c2ccccc2Sc2ccccc21)N(C)C (stereo unspecified) | 9.1 |
| COc1ccnc(C[S+]([O-])c2nc3cc(OC(F)F)ccc3[n-]2)c1OC.[Na+] (stereo unspecified) | 3.9 |
| COc1cc(NS(C)(=O)=O)ccc1Nc1c2ccccc2nc2c(C(N)=O)cccc12 | 6.37 |
| OCCOCCN1CCN(C(c2ccccc2)c2ccc(Cl)cc2)CC1 (stereo unspecified) | 7.75 |

| SMILES | pKa |
| --- | --- |
| Brc1cc(Br)c(N=C2NCCN2)c(Br)c1 | 7.46 |
| Cc1ccc(NS(=O)(=O)Cc2ccccc2)c(=O)n1CC(=O)NCc1ccc(C(=N)N)c(F)c1 | 9.2 |
| Oc1cc(C2=CCNCC2)on1 | 9.4 |
| NCCC(F)(F)F | 8.7 |
| Nc1ccc(S(=O)(=O)Nc2ccc(Nc3c4ccccc4nc4ccccc34)cc2)cc1 | 7.15 |
| COc1cc(NS(C)(=O)=O)ccc1Nc1c2ccccc2nc2c(OCCCC(N)=O)cccc12 | 7.36 |
| Cc1ccc2nc3ccccc3c(Nc3ccc(NS(C)(=O)=O)cc3)c2c1 | 7.23 |
| CC(C)Oc1ncc(-c2nc(-c3cccc4c3OCCNC4CCCC(=O)O)no2)cc1Cl (stereo unspecified) | 7.98 |
| Nc1ccc(Nc2c3ccccc3nc3ccccc23)cc1 | 8.36 |
| CN1CCN(CCCN2c3ccccc3Sc3ccc(Cl)cc32)CC1 | 8.1 |
| COc1cc(NS(C)(=O)=O)ccc1Nc1c2ccccc2nc2cc(C(F)(F)F)ccc12 | 6.24 |
| FC1(F)CCNCC1 | 8.5 |
| Cc1nc2c(/C=C/Cc3ccccc3)cccn2c1CC#N | 5.7 |
| CN/C(=N/CCSCc1nc[nH]c1C)NC#N | 6.8 (3×) and 6.97 (2×) |
| BP(=O)(OC[C@H]1O[C@@H](n2cnc3c(N)nc(SC)nc32)[C@H](O)[C@@H]1O)OP(=O)(O)C(F)(F)P(=O)(O)O (stereo partly specified) | 7 |
| Cc1ccc(N=C2NCCN2)c(Cl)c1 | 9.41 |
| O=S(=O)(Nc1ccc(Nc2c3ccccc3nc3ccccc23)cc1)c1ccccc1 | 7.09 |
| Cc1nc2c(CCc3ccccc3)cccn2c1CC#N | 6 |
| CS(=O)(=O)Nc1ccc(Nc2c3ccccc3nc3cc(Cl)ccc23)cc1 | 6.57 |
| COc1ccc2c(c1)N(C[C@H](C)CN(C)C)c1ccccc1S2 | 9.19 |
| FC(F)(F)c1c(N2CCC(c3ccccc3)CC2)ccn2c(CC3CC3)nnc12 | 4.1 |
| COc1cccc(Nc2c3ccccc3nc3ccccc23)c1 | 7.21 |

| SMILES | pKa |
| --- | --- |
| Cc1c(-c2noc(-c3ccc(OC(C)C)c(C#N)c3)n2)ccc2c1CCN(C(CO)CO)C2 | 7.3 |
| CC(=O)N[C@@H](Cc1cc(F)cc(F)c1)[C@H](O)CNC1(c2cccc(C(C)(C)C)c2)CCCCC1 | 8.1 |
| Nc1ncc[nH]1 | 8.46 |
| Cc1cnc(NCCc2ccccc2)c(=O)n1CC(=O)NCc1cnc(N)cn1 | 2.7 |
| C[C@H](CO)Nc1nc(SCc2cccc(F)c2F)nc2[nH]c(=O)sc12 | 6.7 |
| Clc1cc(Br)cc(Cl)c1N=C1NCCN1 | 7.72 |
| CN1CC[C@H](N(C)C(=O)N2CC(c3cc(F)ccc3F)=C[C@@]2(CO)c2ccccc2)[C@H](F)C1 | 7.6 |
| Cl.Cl.NCCS | 9.11 |
| Cc1cnc(NCC(F)(F)c2ccc(F)cc2)c(=O)n1CC(=O)NCc1cnc(N)cn1 | 2.7 |
| CS(=O)(=O)O.NC(=O)Cc1ccc(Nc2c3ccccc3nc3ccccc23)cc1 | 7.43 |
| Cc1ccc(NS(=O)(=O)Cc2ccccc2)c(=O)n1CC(=O)NC[C@H]1CN=C(N)NC1 | 14 |
| CN(C)CCC1(Cc2ccc(C(C)(C)C)cc2)COC1 | 9.2 |
| CCc1cccc(CC)c1NC1=NCCN1 | 10.6 |
| Cc1ccc(NS(=O)(=O)Cc2ccccc2)c(=O)n1CC(=O)NCc1cnc(N)nc1 | 3.9 |
| CCc1ncc[nH]1 | 7.73 |
| CN(C)C1(CCCc2ccc(C(C)(C)C)cc2)COC1 | 7.2 |
| Nc1nc2ccccc2[nH]1 | 7.5 |
| CCC(C)NCc1cccc(S(=O)(=O)c2csc(S(N)(=O)=O)c2)c1.Cl (stereo unspecified) | 7.45 |
| Cn1ccnc1F | 2.3 |
| O=C(C1CCN(c2ccncn2)CC1)N1CCN(S(=O)(=O)c2ccc(Br)cc2)CC1 | 6.1 |
| COc1ccc2nc3ccccc3c(Nc3ccc(NS(C)(=O)=O)cc3)c2c1 | 6.87 |
| COc1cc(NS(C)(=O)=O)ccc1Nc1c2ccccc2nc2cc(Cl)ccc12 | 6.84 |

| SMILES | pKa |
| --- | --- |
| COc1ccc(Nc2c3ccccc3nc3ccccc23)cc1 | 7.94 |
| Fc1cccc(F)c1N=C1NCCN1 | 8.18 |
| Cc1nc2c(/C=C\c3ccccc3)cccn2c1C | 7.2 |
| COC(=O)[C@H]1[C@H]2C[C@@H]3c4[nH]c5cc(OC)ccc5c4CCN3C[C@H]2C[C@@H](OC(=O)c2cc(OC)c(OC)c(OC)c2)[C@@H]1OC | 7.25 |
| Cc1cnc(NCCc2ccccc2)c(=O)n1CC(=O)NC[C@H]1CN=C(N)NC1 | 14 |
| Cc1nc(N)ncc1CNC(=O)Cn1c(C)cnc(NCCc2ccc3c(c2)CCO3)c1=O | 4.2 |
| NCCCC(F)(F)F | 9.7 |
| CS(=O)(=O)NCc1ccccc1Nc1c2ccccc2nc2ccccc12 | 7.17 |
| Cc1cc(C)c(N=C2NCCN2)c(Cl)c1 | 9.59 |
| Cc1ccc(NS(=O)(=O)Cc2ccccc2)c(=O)n1CC(=O)NC[C@@H]1CNC(N)=N[C@@H]1C | 14 |
| Clc1ccccc1N=C1NCCN1 | 9.15 |
| CCCCCCOC(=O)NCCCC(C)Nc1cc(OC)cc2cccnc12 (stereo unspecified) | 16.2 |
| COc1ccccc1Nc1c2ccccc2nc2ccccc12 | 7.74 |
| COc1cc(NS(C)(=O)=O)ccc1Nc1c2ccccc2nc2cnccc12 | 5.53 |
| CCN(CC)C(=O)[C@@H]1C=C2c3cccc4[nH]cc(c34)C[C@H]2N(C)C1 | 7.8 |
| CN(C)CC(C)(C)CCc1ccc(C(C)(C)C)cc1 | 9.4 |
| COc1ccc(Cl)cc1C(=O)NCCc1ccc(S(=O)(=O)NC(=O)NC2CCCCC2)cc1 | 5.3 |
| Cn1ccnc1[N+](=O)[O-] | 0.48 |
| CCCCOC(=O)c1ccc(OS(N)(=O)=O)cc1 | 8.07 |
| COc1cccc(S(=O)(=O)Nc2cccn(CC(=O)NCc3nc(C(=N)N)cs3)c2=O)c1 | 8.8 |
